# Reference: PubChem BioAssay AID1963831 (Molecular Pharmacology Branch, DTP, NCI, 2024)
# Tested on: 889142-216-R-J1-PDC complex spheroid viability
# Assay: Anticancer human tumor 889142-216-R-J1-PDC patient-derived bladder carcinoma cell line growth inhibition [POLQ]
# Settings: for IC50: curve of first compound; for viability, T/C: stronger effect = lower value
# Outline: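 Patient-derived tumour cells were co-cultured with HUVEC and mesenchymal stem cells as multicellular spheroids at 37 °C. They were treated with POLQ inhibitors (novobiocin, ART-558, RP6685) alone or combined with other agents. Top concentrations were at or near clinical Cmax (otherwise 10 microM; SN-38 at 1 microM), decreasing in half-log steps.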
# [1] = second compound 0.0316 µM, first compound 0.0316 µM
# [2] = second compound 0.0316 µM, first compound 0.1 µM
# [3] = second compound 0.0316 µM, first compound 0.316 µM
# [4] = second compound 0.0316 µM, first compound 1 µM
# [5] = second compound 0.1 µM, first compound 0.0316 µM
# [6] = second compound 0.1 µM, first compound 0.1 µM
# [7] = second compound 0.1 µM, first compound 0.316 µM
# [8] = second compound 0.1 µM, first compound 1 µM
# [9] = second compound 0.316 µM, first compound 0.0316 µM
# [10] = second compound 0.316 µM, first compound 0.1 µM
# [11] = second compound 0.316 µM, first compound 0.316 µM
# [12] = second compound 0.316 µM, first compound 1 µM
# [13] = second compound 1 µM, first compound 0.0316 µM
# [14] = second compound 1 µM, first compound 0.1 µM
# [15] = second compound 1 µM, first compound 0.316 µM
# [16] = second compound 1 µM, first compound 1 µM
# [17] = second compound 3.16 µM, first compound 0.0316 µM
# [18] = second compound 3.16 µM, first compound 0.1 µM
# [19] = second compound 3.16 µM, first compound 0.316 µM
# [20] = second compound 3.16 µM, first compound 1 µM
# [21] = second compound 10 µM, first compound 0.0316 µM
# [22] = second compound 10 µM, first compound 0.1 µM
# [23] = second compound 10 µM, first compound 0.316 µM
# [24] = second compound 10 µM, first compound 1 µM
# [25] = second compound 0.0316 µM, first compound 3.16 µM
# [26] = second compound 0.0316 µM, first compound 10 µM
# [27] = second compound 0.1 µM, first compound 3.16 µM
# [28] = second compound 0.1 µM, first compound 10 µM
# [29] = second compound 0.316 µM, first compound 3.16 µM
# [30] = second compound 0.316 µM, first compound 10 µM
# [31] = second compound 1 µM, first compound 3.16 µM
# [32] = second compound 1 µM, first compound 10 µM
# [33] = second compound 3.16 µM, first compound 3.16 µM
# [34] = second compound 3.16 µM, first compound 10 µM
# [35] = second compound 10 µM, first compound 3.16 µM
# [36] = second compound 10 µM, first compound 10 µM
# 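Note: spheroids exposed to compounds for seven days.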
# 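Throughout, for viability, T/C: 100% = DMSO vehicle control viability.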
structure (smiles),measurement,setting,value
COc1cccc(OCCCN)c1-c1cc(Nc2cnc(C#N)cn2)n[nH]1 + Nc1ccc(C#CCN(C(=O)Cc2ncc(C(F)(F)F)cc2C(F)(F)F)c2ccc(F)cc2)nn1,IC50,second compound 0.0316 µM,136 nM
same,IC50,second compound 0.1 µM,161 nM
same,IC50,second compound 0.316 µM,93.3 nM
same,IC50,second compound 1 µM,32.9 nM
same,IC50,second compound 3.16 µM,29.3 nM
same,IC50,second compound 10 µM,> 1000 nM
same,"viability, T/C","second compound 0.0316 µM, first compound 0.00316 µM",100%
same,"viability, T/C","second compound 0.0316 µM, first compound 0.01 µM",77.4%
same,"viability, T/C",[1],60.2%
same,"viability, T/C",[2],45.8%
same,"viability, T/C",[3],51%
same,"viability, T/C",[4],49%
same,"viability, T/C","second compound 0.1 µM, first compound 0.00316 µM",98.5%
same,"viability, T/C","second compound 0.1 µM, first compound 0.01 µM",75.1%
same,"viability, T/C",[5],57.9%
same,"viability, T/C",[6],54.6%
same,"viability, T/C",[7],45.8%
same,"viability, T/C",[8],46.2%
same,"viability, T/C","second compound 0.316 µM, first compound 0.00316 µM",99.6%
same,"viability, T/C","second compound 0.316 µM, first compound 0.01 µM",71.8%
same,"viability, T/C",[9],49.9%
same,"viability, T/C",[10],49.9%
same,"viability, T/C",[11],56.8%
same,"viability, T/C",[12],43.6%
same,"viability, T/C","second compound 1 µM, first compound 0.00316 µM",79.1%
same,"viability, T/C","second compound 1 µM, first compound 0.01 µM",68%
same,"viability, T/C",[13],50%
same,"viability, T/C",[14],44.5%
same,"viability, T/C",[15],49%
same,"viability, T/C",[16],39.5%
same,"viability, T/C","second compound 3.16 µM, first compound 0.00316 µM",76.8%
same,"viability, T/C","second compound 3.16 µM, first compound 0.01 µM",76.7%
same,"viability, T/C",[17],47.7%
same,"viability, T/C",[18],48.9%
same,"viability, T/C",[19],54%
same,"viability, T/C",[20],41.9%
same,"viability, T/C","second compound 10 µM, first compound 0.00316 µM",85.8%
same,"viability, T/C","second compound 10 µM, first compound 0.01 µM",70.6%
same,"viability, T/C",[21],55.8%
same,"viability, T/C",[22],51.8%
same,"viability, T/C",[23],61%
same,"viability, T/C",[24],45.6%
CNCc1ccc(-c2[nH]c3cc(F)cc4c3c2CCNC4=O)cc1 + Nc1ccc(C#CCN(C(=O)Cc2ncc(C(F)(F)F)cc2C(F)(F)F)c2ccc(F)cc2)nn1,IC50,second compound 0.0316 µM,> 10000 nM
same,IC50,second compound 0.1 µM,> 10000 nM
same,IC50,second compound 0.316 µM,> 10000 nM
same,IC50,second compound 1 µM,> 10000 nM
same,IC50,second compound 3.16 µM,> 10000 nM
same,IC50,second compound 10 µM,> 10000 nM
same,"viability, T/C",[1],109%
same,"viability, T/C",[2],115%
same,"viability, T/C",[3],123%
same,"viability, T/C",[4],108%
same,"viability, T/C",[25],74.8%
same,"viability, T/C",[26],84.5%
same,"viability, T/C",[5],133%
same,"viability, T/C",[6],93%
same,"viability, T/C",[7],104%
same,"viability, T/C",[8],96.3%
same,"viability, T/C",[27],107%
same,"viability, T/C",[28],83.9%
same,"viability, T/C",[9],144%
same,"viability, T/C",[10],82.9%
same,"viability, T/C",[11],78.2%
same,"viability, T/C",[12],78.2%
same,"viability, T/C",[29],81.2%
same,"viability, T/C",[30],82.8%
same,"viability, T/C",[13],128%
same,"viability, T/C",[14],83.3%
same,"viability, T/C",[15],99.3%
same,"viability, T/C",[16],88.2%
same,"viability, T/C",[31],92.3%
same,"viability, T/C",[32],75.5%
same,"viability, T/C",[17],116%
same,"viability, T/C",[18],96.1%
same,"viability, T/C",[19],134%
same,"viability, T/C",[20],122%
same,"viability, T/C",[33],106%
same,"viability, T/C",[34],81.4%
same,"viability, T/C",[21],125%
same,"viability, T/C",[22],98.4%
same,"viability, T/C",[23],104%
same,"viability, T/C",[24],129%
same,"viability, T/C",[35],108%
same,"viability, T/C",[36],96.8%
CC1COCCN1c1cc(C2(O)CC3CCC(C2)O3)c2cnn(-c3ccn[nH]3)c2n1 (stereo unspecified) + COC1C(OC(N)=O)C(O)C(Oc2ccc3c(O)c(NC(=O)c4ccc(O)c(CC=C(C)C)c4)c(=O)oc3c2C)OC1(C)C,IC50,second compound 0.0316 µM,125 nM
same,IC50,second compound 0.1 µM,132 nM
same,IC50,second compound 0.316 µM,180 nM
same,IC50,second compound 1 µM,195 nM
same,IC50,second compound 3.16 µM,169 nM
same,IC50,second compound 10 µM,93.3 nM
same,"viability, T/C",[1],64.3%
same,"viability, T/C",[2],50.6%
same,"viability, T/C",[3],40.6%
same,"viability, T/C",[4],32.7%
same,"viability, T/C",[25],26.2%
same,"viability, T/C",[26],14.7%
same,"viability, T/C",[5],69.9%
same,"viability, T/C",[6],50.2%
same,"viability, T/C",[7],38.6%
same,"viability, T/C",[8],32.5%
same,"viability, T/C",[27],27.5%
same,"viability, T/C",[28],15.2%
same,"viability, T/C",[9],66.4%
same,"viability, T/C",[10],53.6%
same,"viability, T/C",[11],40.2%
same,"viability, T/C",[12],37.5%
same,"viability, T/C",[29],33.3%
same,"viability, T/C",[30],13.2%
same,"viability, T/C",[13],77.4%
same,"viability, T/C",[14],54.9%
same,"viability, T/C",[15],42.4%
same,"viability, T/C",[16],32.2%
same,"viability, T/C",[31],29.5%
same,"viability, T/C",[32],12.7%
same,"viability, T/C",[17],64.3%
same,"viability, T/C",[18],54.5%
same,"viability, T/C",[19],40.5%
same,"viability, T/C",[20],39.2%
same,"viability, T/C",[33],25.2%
same,"viability, T/C",[34],14.1%
same,"viability, T/C",[21],65.2%
same,"viability, T/C",[22],43.2%
same,"viability, T/C",[23],39.2%
same,"viability, T/C",[24],30.6%
same,"viability, T/C",[35],30.1%
same,"viability, T/C",[36],13.9%
